Measurements taken from US9581598B2, “Diagnosis and treatment of brain tumor” (Sanford-Burnham Medical Research Institute, priority 2012, dated 2017).
“Also recorded” adds a separate entry of the source. One block for each compound: values may come before it. Where a SMILES comes first, the peptide text is derived from it. The star is where a group is joined. DTPA(central) = O=C(O)CN(CCN(CCN(CC(=O)O)CC(=O)O)CC(=O)*)CC(=O)O; FITC = O=C1OC2(c3ccc(O)cc3Oc3cc(O)ccc32)c2ccc(NC(=S)*)cc21

Columns and labels:
[1] = test system: MDGI-expressing MDA-MB-231 xenografts; experiment: homing of fluorescein-labeled peptide after i.v. injection; format: in vivo, mice
Protocol: (§1) Intravenously injected fluorescein-labeled peptides (100 μl of 1 mM solution) and antibodies (20 μg/animal) were allowed to circulate for one hour followed by perfusion through the heart with 10 ml of phosphate buffered saline (PBS) and 10 ml of 4% paraformaldehyde (PFA) in PBS. Tumors and organs were excised, PFA-fixed and soaked in 30% sucrose (w/v) overnight. Tissues were frozen in the OCT embedding medium (Tissue-Tek). Sections (5-10 μm) were cut for histological analyses. To detect the in vivo distribution of the fluorescein-labeled peptides, sections were stained with a rabbit anti-FITC antibody (Zymed Laboratories, San Francisco, USA). To visualize blood vessels, MDGI and tumor cells, sections were stained with the rat anti-mouse CD31 (BD Pharmingen), goat or rabbit anti-MDGI (Santa Cruz Biotechnology, USA), or a rabbit anti-SV40 large T antigen (a kind gift from Dr. Hanahan, ISREC, Switzerland) antibodies followed by the Alexa-594 and Alexa-488 conjugated secondary antibodies (Molecular Probes, Eugene, Oreg., USA). Nuclei were visualized with DAPI (Vector Laboratories, Burlingame). Sections were examined under an inverted fluorescence microscope (Axioplan).
To obtain an MDA-MB-231 breast tumor cell line stably expressing the MDGI as a c-Myc fusion protein, cells were transfected with the pcDNA3-9E10-MDGI plasmid as described herein. […]

[2] = test system: tumors established from the HIFko cells implanted subcutaneously; experiment: as above; format: in vivo, mice; conditions: subcutaneous HIFko tumors
Protocol: (§2) Athymic female Balb/c nu-nu mice (4-6 wks) from Taconic Europe were used in all tumor experiments. Establishment of the intracranial tumors has been described (Blouw et al., 2003). In brief, 50 000 HIFko, VEGF+, U87MG, U87-GFP, U87-MDGI-GFP or BT4C tumor cells in phosphate buffered saline (PBS) or DMEM were injected through the skull using a Hamilton syringe (no 84855), 2 mm right from the bregma at the depth of 3 mm in the brain parenchyma. Mice were used for some experiments 10-15 days after tumor cell inoculation. In experiments studying the role of MDGI in tumor progression and invasiveness, mice were used 10-21 days after tumor cell inoculation. To establish subcutaneous tumors, 2-5×10^6 cells were grafted subcutaneously on the abdominal side of the mice (in some experiments) or into the mammary fat pad, in other experiments. All animal studies were conducted according to the guidelines of the Provincial Government of Southern Finland and the protocol was approved by the Experimental Animal Committee.
as §1

[3] = test system: orthotopic MDA-MB-231 human breast cancer xenografts; experiment: as above; format: in vivo, mice; conditions: intravenous injection; parental MDA-MB-231
Protocol: as §2, §1

[4] = test system: astrocytomas overexpressing VEGF; experiment: as above; format: in vivo, mice; conditions: angiogenic vessels
Protocol: as §2, §1

[5] = test system: intracranial U87MG human glioma xenografts; experiment: as above; format: in vivo, mice; conditions: intravenous injection
Protocol: as §2, §1

[6] = test system: rat BT4C glioma xenografts; experiment: as above; format: in vivo, mice; conditions: intravenous injection
Protocol: as §2, §1

i.c. U87MG tumor = test system: i.c. U87MG tumor; parameters: species or system mice; conditions: mouse, in vivo
Protocol: The DTPA conjugated peptides (20 μg per animal) were mixed with 0.2 M NaAc (pH 5) and 5 MBq of ^111Indiumchloride (^111InCl3, Mallinckrodt, Le Petten, Netherlands) per animal was added to the mixture. The total volume of the solution was calculated to be 100 μl/animal. The reaction mixture was incubated for an hour at RT and the radiochemical purity was measured by using an instant thin-layer chromatography (ITLC-SG, Pall Corporation, USA) on a 13×1.5 cm strip using 0.3 M NaCit (pH 5) as a mobile phase. The radiochemical purity of the peptides was 99-100%.
The imaging studies were performed two weeks post U87MG tumor implantation. For SPECT/CT (single photon emission computed tomography-computed tomography) imaging animals were anesthetized with 1-3% isoflurane in N2/O2 at a 70:30 ratio. The radiolabeled peptide (100 μl) was injected into the tail vein followed by SPECT imaging using a combined small animal SPECT/CT (Gamma Medica Inc., Northridge, Calif.) with dual gamma camera modality. Medium energy parallel hole collimators were used in all gamma imaging with a 171/245/[…] keV energy window for ^111In. Planar two-dimensional imaging for all animals was performed at earliest possible time point after injection with 60 s acquisition time/image up to 30 minutes. For 3D imaging total of 64 projections, (120 s/projection) were used. The matrix size was 80×80 in 125×125 mm^2 field of view (FOV). […]
After the last imaging session animals were sacrificed with CO2 and tissue samples were collected. Major organs and tissues (blood, heart, lungs, liver, spleen, left kidney, duodenum, ovaries, fat, muscle, skin, brain and brain tumor) were weighed, and the radioactivity in each organ or tissue sample was measured in an automated gamma counter (Clinigamma, Turku, Finland). The counts obtained were corrected for the background radiation and physical decay, and tissue radioactivity was expressed as percentage of the injected dose per gram of tissue (% ID/g)±SD.

i.c HIFko astrocytoma = experiment: tissue localization of fluorescein-labeled peptide after i.v. injection; format: in vivo, mice
Protocol: as §2
Intravenously injected fluorescein-labeled peptides ([…]) and antibodies (20 μg/animal) were allowed to circulate for one hour followed by perfusion through the heart with 10 ml of phosphate buffered saline (PBS) and 10 ml of 4% paraformaldehyde (PFA) in PBS. Tumors and organs were excised, PFA-fixed and soaked in 30% sucrose (w/v) overnight. Tissues were frozen in the OCT embedding medium (Tissue-Tek). Sections (5-10 μm) were cut for histological analyses. To detect the in vivo distribution of the fluorescein-labeled peptides, sections were stained with a rabbit anti-FITC antibody (Zymed Laboratories, San Francisco, USA). […] Sections were examined under an inverted fluorescence microscope (Axioplan).

[7] = test system: HifKO murine astrocytoma cells; experiment: targeted treatment of tumor bearing mice; format: in vivo; conditions: day 14
Protocol: Immunocompromised (Balb/c nu/nu) mice were implanted with HifKO murine astrocytoma cells (Blouw et al. 2003). Treatment with saline (PBS), free chlorambusil (Cbl) and targeted drug (chlorambusil conjugated to CooP peptide; CooP—CPP-Cbl, 5 mg/kg) was started at day 5 post-implantation and continued every second day until day 14.

Compound: NH2-ACGLSGLGVA-CONH2 (H-ACGLSGLGVA-NH2) [CooP peptide, core …]
homing to tumor [1]: homed with high efficiency | homing to tumor [2]: did not home | peptide detected in tumor [3]: No CooP peptide was detected; also recorded: only negligible amount of the peptide was detected | homing to tumor [4]: did not home | homing to tumor [5]: homed efficiently | homing to tumor [6]: to a lesser yet detectable extent

tumor half to healthy brain half ratio (i.c. U87MG tumor): up to 20:1 | plasma clearance (i.c. U87MG tumor; iv, 20 ug): rapid
Compound: CC(C)C[C@H](NC(=O)CNC(=O)[C@H](CO)NC(=O)[C@H](CC(C)C)NC(=O)CNC(=O)[C@H](CS)NC(=O)[C@H](C)NC(=O)CN(CCN(CC(=O)O)CC(=O)O)CCN(CC(=O)O)CC(=O)O)C(=O)NCC(=O)N[C@H](C(=O)N[C@@H](C)C(N)=O)C(C)C [^111In-CooP, metal not drawn] ({DTPA(central)}-ACGLSGLGVA-NH2)

Compound: FITC-CooP: synthetic CooP peptide conjugated to fluorescein (Ac-K(FITC)ACGLSGLGVA-NH2)
peptide localization in tumor (i.c HIFko astrocytoma; 100 μM, 100 μl/animal i.v., 60 minutes circulation): accumulated in the tumor islets in the brain | peptide-derived fluorescence in the kidneys and the choroid plexus (i.c HIFko astrocytoma; i.v.): Some peptide-derived fluorescence was observed | peptide in surrounding histologically normal brain or other tissues (i.c HIFko astrocytoma; i.v., 60 minutes circulation): not detected

Compound: O=C(O)CCCc1ccc(N(CCCl)CCCl)cc1 [chlorambusil]
condition of the animals at end of experiment [7]: poor condition of the animals

accumulation in the tumor tissue (i.c. U87MG tumor): No accumulation
Compound: CC(C)C[C@H](NC(=O)[C@H](C)NC(=O)[C@H](C)NC(=O)[C@@H](NC(=O)[C@H](CS)NC(=O)[C@H](C)NC(=O)CN(CCN(CC(=O)O)CC(=O)O)CCN(CC(=O)O)CC(=O)O)C(C)C)C(=O)N[C@@H](CC(N)=O)C(=O)N[C@@H](C)C(=O)N[C@@H](CC(=O)O)C(=O)NCC(N)=O [^111In-labeled control peptide, NH2-ACVAALNADG-CONH2, metal not drawn, reference compound]
